Assay results reported in paper PMC6017322, “Triterpene Acids from Frankincense and Semi-Synthetic Derivatives That Inhibit 5-Lipoxygenase and Cathepsin G” (Molecules : A Journal of Synthetic Chemistry and Natural …, 2018).

Assays:
cathepsin G = molecular target: T1, cathepsin G (Homo sapiens, UniProt P08311); test: Cathepsin G activity in a cell-free assay (Suc-AAPF-pNA substrate); format: biochemical; conditions: for inhibition of cathepsin G / inhibition at 10 µM: at 10 µM; for remaining activity at 10 µM / Cat. G Activity [% Control]: residual activity at 10 µM, mean ± SEM, 3–4 experiments; for remaining activity at 10 µM / IC50 / Cat. G Activity [% Control]: cell-free; for remaining activity at 10 µM: read-out: Cat. G Activity [% Control]; for IC50: purified cathepsin G from human neutrophils, read-out: Cat. G IC50 (converted)
T1 construct: purified cathepsin G (0.2 µg) from human neutrophils; purchased Calbiochem; host or cells: human neutrophils (natural source)
T1 sequence (P08311 21-244 limits assumed): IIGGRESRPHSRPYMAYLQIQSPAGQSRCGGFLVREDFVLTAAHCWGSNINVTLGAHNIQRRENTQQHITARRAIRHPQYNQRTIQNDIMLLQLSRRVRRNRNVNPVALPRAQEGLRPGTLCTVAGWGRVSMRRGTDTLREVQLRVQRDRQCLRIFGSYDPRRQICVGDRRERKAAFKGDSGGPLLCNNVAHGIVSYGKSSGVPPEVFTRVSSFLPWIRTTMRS
Protocol: Commercially available purified cathepsin G (0.2 µg) from human neutrophils (Calbiochem, La Jolla, CA, USA) was mixed with test compounds or DMSO (vehicle control) in 200 µL 0.1 M HEPES pH 7.4, 0.5 M NaCl, and 10% DMSO in a 96-well plate (Greiner Bio-One, Frickenhausen, Germany) and pre-incubated for 20 min at 25 °C. Then, N-Suc–Ala–Ala–Pro–Phe–pNA (Suc–AAPF–pNA) (1 mM) as substrate for cathespin G was added, and the absorbance was measured at 410 nm at 25 °C using a Victor^2 plate reader (PerkinElmer, Waltham, MA, USA).

5-LO [1] = molecular target: T2, 5-LO (Homo sapiens, UniProt P09917); test: 5-LO product formation in intact human neutrophils stimulated with A23187 (cell-based); parameters: 5-LO product formation in intact human neutrophils; endogenous in cells; host or cells: freshly isolated human peripheral blood neutrophils; conditions: for IC50: human neutrophils stimulated with A23187; for remaining activity at 10 µM: read-out: 5-LO Activity [% Control] cell-based
T2 sequence (P09917 1-674): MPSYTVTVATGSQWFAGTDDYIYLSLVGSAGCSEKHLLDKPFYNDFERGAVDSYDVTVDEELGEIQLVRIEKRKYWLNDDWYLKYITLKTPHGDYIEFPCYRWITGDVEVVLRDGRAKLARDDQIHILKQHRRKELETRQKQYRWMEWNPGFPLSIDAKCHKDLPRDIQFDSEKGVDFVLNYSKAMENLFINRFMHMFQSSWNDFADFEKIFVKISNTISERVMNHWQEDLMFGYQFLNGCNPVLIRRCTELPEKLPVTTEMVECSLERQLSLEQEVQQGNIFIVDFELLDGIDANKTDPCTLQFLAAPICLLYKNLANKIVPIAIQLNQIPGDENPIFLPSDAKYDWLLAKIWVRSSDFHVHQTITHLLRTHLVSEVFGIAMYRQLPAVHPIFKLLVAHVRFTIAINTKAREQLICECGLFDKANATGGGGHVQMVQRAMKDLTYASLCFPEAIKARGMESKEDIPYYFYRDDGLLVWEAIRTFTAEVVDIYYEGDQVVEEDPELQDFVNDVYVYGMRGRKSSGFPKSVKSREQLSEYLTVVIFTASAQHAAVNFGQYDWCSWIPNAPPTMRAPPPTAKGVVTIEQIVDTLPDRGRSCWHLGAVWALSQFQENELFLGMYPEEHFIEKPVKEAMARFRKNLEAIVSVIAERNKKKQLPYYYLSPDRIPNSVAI
Protocol: Neutrophils were isolated from peripheral blood (University Hospital Tübingen, Germany), collected from fasted healthy adult donors that were informed about the aim of the study and gave written consent. Leukocyte concentrates were obtained by centrifugation (4000× g, 20 min, 20 °C) of heparinized blood preparation, and neutrophils were immediately isolated as described before. Briefly, leukocyte concentrates were subjected to dextran sedimentation and centrifuged on lymphocyte separation medium (LSM 1077, PAA, Coelbe, Germany). For isolation of pelleted neutrophils, remaining erythrocytes were removed by hypotonic lysis, washed twice with ice-cold phosphate-buffered saline (PBS) and finally resuspended in PBS buffer containing 0.1% glucose and CaCl2 (1 mM) (PGC buffer).
5-LO product formation in intact human neutrophils was performed using 5 × 10^6 freshly isolated cells that were resuspended in 1 mL PGC buffer. Cells were pre-incubated with the test compounds or vehicle (0.1% DMSO) at 37 °C for 15 min prior to stimulation with 2.5 µM Ca^2+-ionophore A23187 for 10 min (37 °C). 5-LO product formation was stopped by addition of one volume of ice-cold methanol, samples were subjected to solid phase extraction after addition of 200 ng PGB1 as internal standard, and 5-LO products (LTB4, its trans-isomers and 5-HETE) were analyzed by RP-HPLC as described above.

5-LO [2] = molecular target: T2, 5-LO; test: 5-LO activity in a cell-free assay (isolated human recombinant 5-LO, 20 µM arachidonic acid); format: biochemical; parameters: made in house; host or cells: Escherichia coli BL21 (pT3-5-LO plasmid); conditions: for remaining activity at 10 µM / 5-LO Activity [% Control] cell-free: residual activity at 10 µM, isolated 5-LO, 20 µM arachidonic acid, mean ± SEM, 3–4 experiments; for remaining activity at 10 µM: read-out: 5-LO Activity [% Control] cell-free
Protocol: Human recombinant 5-LO was expressed in Eschericha coli BL21 transformed with pT3-5-LO plasmid at 30 °C overnight, as described elsewhere. Cells were lysed in lysis buffer containing triethanolamine (50 mM, pH 8.0), EDTA (5 mM), phenylmethanesulfonyl fluoride (1 mM), soybean trypsin inhibitor (60 µg/mL), dithiothreitol (2 mM), and lysozyme (1 mg/mL), and homogenized by sonification (3 × 15 s). 5-LO was then purified from 40,000× g supernatant (20 min, 4 °C) using an ATP-agarose column (Sigma-Aldrich, Deisenhofen, Germany), diluted with PBS buffer containing 1 mM EDTA, and immediately used for 5-LO activity assays.
To determine 5-LO activity, aliquots of purified 5-LO (0.5 µg 5-LO in 1 mL PBS plus 1 mM EDTA) were pre-incubated with the test compounds or vehicle (0.1% dimethyl sulfoxide, DMSO) on ice for 15 min, pre-warmed for 30 s at 37 °C in a water bath, and then stimulated with 20 µM AA and CaCl2 2 mM for 10 min at 37 °C. The reaction was stopped with one volume of ice-cold methanol and 5-LO products (including all-trans-isomers of LTB4 and 5-hydroperoxyeicosatetraenoic acid (5-HpETE), as well as its corresponding alcohol 5-hydroxyeicosatetraenoic acid (5-HETE)) were analyzed by reversed phase (RP)-HPLC (Elite LaChrom, VWR, Radnor, PA, USA) as previously described. In brief, acidified PBS and 200 ng of internal PGB1 standard were added and solid phase extraction using C18 RP-columns (100 mg, UCT, Bristol, PA, USA) was performed. After elution with methanol, samples were analyzed by RP-HPLC using a C-18 Radial-PAK column (Waters, Eschborn, Germany).

[3] = residual activity at 10 µM, human neutrophils, A23187, mean ± SEM, 3–4 experiments

Row | inhibition of cathepsin G (cathepsin G) | remaining activity at 10 µM (cathepsin G) [%] | remaining activity at 10 µM (5-LO [1]; [3]) [%] | inhibition at 10 µM (5-LO [2]) [%] | remaining activity at 10 µM (5-LO [2]) [%] | IC50 (cathepsin G) [µM] | 5-LO Activity [% Control] cell-free (5-LO [2]) | Cat. G Activity [% Control] (cathepsin G) | 5-LO Activity [% Control] cell-based (5-LO [1]; [3]) | inhibition at 10 µM (5-LO [1]; at 10 µM, human neutrophils, read-out: inhibition of 5-LO activity in intact cells) [%] | SMILES | IC50 (5-LO [1]) [µM] | inhibition at 10 µM (cathepsin G) [%]
1 |  | 62.9 ± 6.6 | 18.3 ± 2.7 | < 25 | 72.8 ± 7.1 |  |  |  |  |  | C[C@H]1[C@H](C)CC[C@]2(C)CC[C@]3(C)C(=C[C@@H](O)[C@@H]4[C@@]5(C)CC[C@@H](O)[C@](C)(C(=O)O)[C@@H]5CC[C@]43C)[C@H]12 [compound 18, 11α-Hydroxy-β-boswellic acid] | 2.8 | 
2 |  | 82.7 ± 9 | 58.2 ± 0.9 | < 25 | 87.2 ± 1.8 |  |  |  |  |  | C[C@H]1[C@H](C)CC[C@]2(C)CC[C@]3(C)C(=C[C@H](O)[C@@H]4[C@@]5(C)CC[C@@H](O)[C@](C)(C(=O)O)[C@@H]5CC[C@]43C)[C@H]12 [compound 19, 11β-hydroxy-β-boswellic acid] |  | 
3 |  | 38.1 ± 6.4 | 77.3 ± 5.7 |  |  | 4.7 | n.i. |  |  |  | C[C@H]1[C@H](C)CC[C@]2(C)CC[C@]3(C)C(=CC[C@@H]4[C@@]5(C)CC[C@@H](OC(=O)C(=O)O)[C@](C)(C(=O)O)[C@@H]5CC[C@]43C)[C@H]12 [compound 20, 3-O-Oxaloyl-β-boswellic acid] |  | 
4 | not active |  | 70.3 ± 6.9 |  |  |  | n.i. | n.i. |  |  | C[C@H]1[C@H](C)CC[C@]2(C)CC[C@]3(C)C(=CC(=O)[C@@H]4[C@@]5(C)CC[C@@H](OC(=O)C(=O)O)[C@](C)(C(=O)O)[C@@H]5CC[C@]43C)[C@H]12 [compound 21, 3-O-Oxaloyl-11-keto-β-boswellic acid] |  | 
5 |  | 59.4 ± 7.6 | 60.3 ± 8 |  | 85.9 ± 11.1 |  |  |  |  |  | C[C@H]1[C@H](C)CC[C@]2(C)CC[C@]3(C)C(=CC[C@@H]4[C@@]5(C)CC[C@@H](OC(=O)CCC(=O)O)[C@](C)(C(=O)O)[C@@H]5CC[C@]43C)[C@H]12 [compound 22, 3-O-Succinoyl-β-boswellic acid] |  | 
6 | not active |  | 80.8 ± 6.8 |  | 75 ± 4.8 |  |  | n.i. |  |  | C[C@H]1[C@H](C)CC[C@]2(C)CC[C@]3(C)C(=CC(=O)[C@@H]4[C@@]5(C)CC[C@@H](OC(=O)CCC(=O)O)[C@](C)(C(=O)O)[C@@H]5CC[C@]43C)[C@H]12 [compound 23, 3-O-Succinoyl-11-keto-β-boswellic acid] |  | 
7 |  | 24.5 ± 1.7 | 65.3 ± 8 |  |  | 3.6 | n.i. |  |  |  | C[C@H]1[C@H](C)CC[C@]2(C)CC[C@]3(C)C(=CC[C@@H]4[C@@]5(C)CC[C@@H](OC(=O)CCCC(=O)O)[C@](C)(C(=O)O)[C@@H]5CC[C@]43C)[C@H]12 [compound 24, 3-O-Glutaroyl-β-boswellic acid] |  | 
8 |  | 49.1 ± 11 |  |  |  | 8.6 | n.i. |  | n.i. |  | C[C@H]1[C@H](C)CC[C@]2(C)CC[C@]3(C)C(=CC(=O)[C@@H]4[C@@]5(C)CC[C@@H](OC(=O)CCCC(=O)O)[C@](C)(C(=O)O)[C@@H]5CC[C@]43C)[C@H]12 [compound 25, 3-O-Glutaroyl-11-keto-β-boswellic acid] |  | 
9 |  | 28.8 ± 7.4 | 57.6 ± 5.3 |  | 78.1 ± 7.4 | 3.4 |  |  |  | 42 | C[C@H]1[C@H](C)CC[C@]2(C)CC[C@]3(C)C(=CC[C@@H]4[C@@]5(C)CC[C@@H](OCC(=O)O)[C@](C)(C(=O)O)[C@@H]5CC[C@]43C)[C@H]12 [compound 26, 3-O-Carboxymethyl-β-boswellic acid] |  | 
10 | not active |  | 68.4 ± 2.1 |  |  |  | n.i. | n.i. |  |  | C[C@H]1[C@H](C)CC[C@]2(C)CC[C@]3(C)C(=CC(=O)[C@@H]4[C@@]5(C)CC[C@@H](OCC(=O)O)[C@](C)(C(=O)O)[C@@H]5CC[C@]43C)[C@H]12 [compound 27, 3-O-Carboxymethyl-11-keto-β-boswellic acid] |  | 

Row | SMILES | inhibition of cathepsin G (cathepsin G) | remaining activity at 10 µM (cathepsin G) [%] | remaining activity at 10 µM (5-LO [1]; [3]) [%] | inhibition at 10 µM (5-LO [2]) [%] | remaining activity at 10 µM (5-LO [2]) [%] | IC50 (cathepsin G) [µM] | 5-LO Activity [% Control] cell-free (5-LO [2]) | Cat. G Activity [% Control] (cathepsin G) | 5-LO Activity [% Control] cell-based (5-LO [1]; [3]) | inhibition at 10 µM (5-LO [1]; at 10 µM, human neutrophils, read-out: inhibition of 5-LO activity in intact cells) [%] | IC50 (5-LO [1]) [µM] | inhibition at 10 µM (cathepsin G) [%]
11 | CC(C)=CCC[C@H](C(=O)O)[C@@H]1CC[C@]2(C)C3=C(CC[C@@]12C)[C@@]1(C)CC[C@H](O)C(C)(C)[C@@H]1CC3 [compound 15] | failed to markedly inhibit cathepsin G | 80.1 ± 6.2 | 5.2 ± 1 | 36 | 64.1 ± 12.4 |  |  |  |  |  | 3 | 
12 | CC(C)=CCC[C@H](C(=O)O)[C@@H]1CC[C@]2(C)C3=C(CC[C@@]12C)[C@@]1(C)CCC(=O)C(C)(C)[C@@H]1CC3 [compound 16] |  | 53.1 ± 5.5 | 37.8 ± 2.4 |  | 77.1 ± 8.7 |  |  |  |  |  | 7.1 | 27 to 44
13 | CC(=O)O[C@@H]1CC[C@]2(C)C3=C(CC[C@H]2C1(C)C)[C@@]1(C)CC[C@@H]([C@H](CCC=C(C)C)C(=O)O)[C@]1(C)CC3 [compound 17] |  | 66.7 ± 4.5 | 75.5 ± 2.1 |  | 75.6 ± 3 |  |  |  |  |  |  | 27 to 44
